Results on one molecule are retold here after ChEMBL document CHEMBL1144455, “A small molecule-kinase interaction map for clinical kinase inhibitors” (Nat Biotechnol, 2005).

As a reminder, the Kd is the free concentration of one partner at which half of the binding sites on the other are occupied at equilibrium, for simple one-to-one binding.

Assay [1] has as its target Tyrosine-protein kinase ABL1 (Homo sapiens, UniProt P00519, H396P).
The target in assay [2] is Fibroblast growth factor receptor 1 (Homo sapiens, UniProt P11362).
For assay [3], the target named is Dual specificity protein kinase CLK4 (Homo sapiens, UniProt Q9HAZ1).
For assay [4], the target named is Tyrosine-protein kinase Lck (Homo sapiens, UniProt P06239).
Assay [5] concerns the target STE20-like serine/threonine-protein kinase (Homo sapiens, UniProt Q9H2G2).
The target in assay [6] is Tyrosine-protein kinase ABL1 (Homo sapiens, UniProt P00519, Y253F).
The target in assay [7] is T1, Membrane-associated tyrosine- and threonine-specific cdc2-inhibitory kinase (Homo sapiens, UniProt Q99640).
T1 sequence (Q99640 whole entry): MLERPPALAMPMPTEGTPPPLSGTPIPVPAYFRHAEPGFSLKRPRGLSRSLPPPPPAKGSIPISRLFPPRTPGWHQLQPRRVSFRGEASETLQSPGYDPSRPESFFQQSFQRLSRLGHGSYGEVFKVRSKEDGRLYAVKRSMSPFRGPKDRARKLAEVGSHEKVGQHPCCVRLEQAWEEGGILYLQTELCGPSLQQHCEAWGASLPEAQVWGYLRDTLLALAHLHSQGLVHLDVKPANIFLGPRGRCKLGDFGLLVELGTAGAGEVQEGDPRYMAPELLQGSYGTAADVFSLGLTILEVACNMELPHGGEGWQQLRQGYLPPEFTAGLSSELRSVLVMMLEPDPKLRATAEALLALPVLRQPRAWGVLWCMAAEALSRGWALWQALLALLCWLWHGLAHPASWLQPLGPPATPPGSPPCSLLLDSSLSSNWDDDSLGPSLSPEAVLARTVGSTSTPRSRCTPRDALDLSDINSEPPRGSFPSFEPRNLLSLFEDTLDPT

In assay [8] the target is T2, Ephrin type-B receptor 1 (Homo sapiens, UniProt P54762).
T2 sequence (P54762 whole entry): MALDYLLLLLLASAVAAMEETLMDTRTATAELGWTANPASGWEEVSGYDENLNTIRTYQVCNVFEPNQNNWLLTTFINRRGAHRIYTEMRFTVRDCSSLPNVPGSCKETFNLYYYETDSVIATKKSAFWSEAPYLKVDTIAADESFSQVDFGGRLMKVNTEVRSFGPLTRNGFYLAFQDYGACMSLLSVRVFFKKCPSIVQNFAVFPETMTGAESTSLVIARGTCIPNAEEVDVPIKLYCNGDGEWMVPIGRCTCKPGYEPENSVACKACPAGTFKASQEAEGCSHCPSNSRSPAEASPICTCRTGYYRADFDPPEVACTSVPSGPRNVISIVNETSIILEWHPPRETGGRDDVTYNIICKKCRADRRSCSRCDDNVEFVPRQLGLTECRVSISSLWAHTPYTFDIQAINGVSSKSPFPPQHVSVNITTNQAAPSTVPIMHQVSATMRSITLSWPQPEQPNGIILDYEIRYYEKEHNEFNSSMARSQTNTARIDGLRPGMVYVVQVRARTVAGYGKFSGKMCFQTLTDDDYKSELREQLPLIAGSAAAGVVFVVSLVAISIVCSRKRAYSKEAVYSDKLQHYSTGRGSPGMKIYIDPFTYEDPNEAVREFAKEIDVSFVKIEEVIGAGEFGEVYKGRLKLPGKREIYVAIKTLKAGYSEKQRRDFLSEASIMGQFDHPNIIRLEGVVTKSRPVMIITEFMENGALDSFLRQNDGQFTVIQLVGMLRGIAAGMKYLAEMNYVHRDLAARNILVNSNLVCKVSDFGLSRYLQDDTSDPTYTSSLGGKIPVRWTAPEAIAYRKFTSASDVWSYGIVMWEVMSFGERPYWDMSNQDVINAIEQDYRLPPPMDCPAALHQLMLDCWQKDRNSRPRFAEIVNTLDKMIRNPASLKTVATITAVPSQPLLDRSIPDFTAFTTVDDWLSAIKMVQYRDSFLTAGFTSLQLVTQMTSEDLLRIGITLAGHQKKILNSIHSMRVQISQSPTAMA

Assay [9] deals with Cyclin-dependent kinase 2 (Homo sapiens, UniProt P24941).
Assay [10] addresses Tyrosine-protein kinase ABL2 (Homo sapiens, UniProt P42684).
Assay [11] concerns the target Death-associated protein kinase 2 (Homo sapiens, UniProt Q9UIK4).
Assay [12] addresses Calcium/calmodulin-dependent protein kinase type II subunit beta (Homo sapiens, UniProt Q13554).
For assay [13], the target named is Proto-oncogene tyrosine-protein kinase Src (Homo sapiens, UniProt P12931).
Assay [14] addresses Tyrosine-protein kinase ABL1 (Homo sapiens, UniProt P00519).
The target in assay [15] is Casein kinase I isoform epsilon (Homo sapiens, UniProt P49674).
Chain of Casein kinase I isoform epsilon (P49674 whole entry, canonical isoform): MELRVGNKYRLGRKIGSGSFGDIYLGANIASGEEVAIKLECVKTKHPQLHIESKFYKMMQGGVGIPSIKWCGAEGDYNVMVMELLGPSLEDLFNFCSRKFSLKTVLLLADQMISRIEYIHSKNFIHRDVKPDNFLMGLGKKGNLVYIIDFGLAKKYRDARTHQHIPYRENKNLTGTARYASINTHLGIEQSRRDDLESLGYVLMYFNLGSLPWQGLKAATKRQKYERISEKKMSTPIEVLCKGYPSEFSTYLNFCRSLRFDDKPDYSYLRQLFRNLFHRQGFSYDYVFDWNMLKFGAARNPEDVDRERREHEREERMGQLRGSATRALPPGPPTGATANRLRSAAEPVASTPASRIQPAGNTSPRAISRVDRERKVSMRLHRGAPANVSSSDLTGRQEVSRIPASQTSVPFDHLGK

Chain of Dual specificity protein kinase CLK4 (Q9HAZ1 whole entry): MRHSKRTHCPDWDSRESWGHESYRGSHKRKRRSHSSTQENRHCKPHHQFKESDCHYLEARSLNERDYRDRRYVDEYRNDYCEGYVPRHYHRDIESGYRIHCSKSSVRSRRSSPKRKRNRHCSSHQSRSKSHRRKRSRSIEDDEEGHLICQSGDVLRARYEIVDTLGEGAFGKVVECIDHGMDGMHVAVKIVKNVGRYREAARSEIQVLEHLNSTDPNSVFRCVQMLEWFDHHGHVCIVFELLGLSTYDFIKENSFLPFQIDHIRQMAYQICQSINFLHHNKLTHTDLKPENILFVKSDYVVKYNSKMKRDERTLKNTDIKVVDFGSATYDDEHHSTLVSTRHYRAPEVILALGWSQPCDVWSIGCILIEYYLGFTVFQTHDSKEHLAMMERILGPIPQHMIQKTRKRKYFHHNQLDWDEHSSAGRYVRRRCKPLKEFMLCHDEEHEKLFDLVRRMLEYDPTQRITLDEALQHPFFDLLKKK
Chain of Tyrosine-protein kinase Lck (P06239 whole entry): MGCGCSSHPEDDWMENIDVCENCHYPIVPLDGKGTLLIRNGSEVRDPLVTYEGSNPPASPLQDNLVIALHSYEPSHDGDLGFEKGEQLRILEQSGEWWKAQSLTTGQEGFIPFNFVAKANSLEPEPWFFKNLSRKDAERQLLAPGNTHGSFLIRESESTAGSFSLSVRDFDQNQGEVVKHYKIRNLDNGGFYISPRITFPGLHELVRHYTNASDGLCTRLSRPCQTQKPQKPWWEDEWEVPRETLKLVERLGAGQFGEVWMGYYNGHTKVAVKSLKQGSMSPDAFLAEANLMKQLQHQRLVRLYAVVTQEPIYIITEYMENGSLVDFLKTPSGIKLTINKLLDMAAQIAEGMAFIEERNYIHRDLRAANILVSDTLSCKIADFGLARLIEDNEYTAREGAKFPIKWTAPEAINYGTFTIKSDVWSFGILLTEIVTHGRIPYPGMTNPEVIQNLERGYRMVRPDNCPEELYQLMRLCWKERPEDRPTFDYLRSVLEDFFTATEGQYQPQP
Chain of Proto-oncogene tyrosine-protein kinase Src (P12931 2-536 limits assumed): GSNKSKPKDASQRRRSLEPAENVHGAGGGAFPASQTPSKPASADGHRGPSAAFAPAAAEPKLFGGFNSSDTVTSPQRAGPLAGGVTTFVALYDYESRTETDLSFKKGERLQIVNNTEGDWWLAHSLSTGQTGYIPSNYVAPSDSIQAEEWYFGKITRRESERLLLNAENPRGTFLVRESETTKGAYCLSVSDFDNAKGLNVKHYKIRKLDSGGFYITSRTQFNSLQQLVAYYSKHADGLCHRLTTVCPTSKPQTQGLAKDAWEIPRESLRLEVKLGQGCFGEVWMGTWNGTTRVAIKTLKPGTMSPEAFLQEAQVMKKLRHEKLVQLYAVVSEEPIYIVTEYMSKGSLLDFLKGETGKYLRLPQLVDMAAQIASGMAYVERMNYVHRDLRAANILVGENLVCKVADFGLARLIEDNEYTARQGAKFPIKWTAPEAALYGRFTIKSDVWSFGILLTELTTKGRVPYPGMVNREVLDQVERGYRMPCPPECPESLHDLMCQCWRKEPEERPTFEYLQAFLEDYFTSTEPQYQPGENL
Chain of STE20-like serine/threonine-protein kinase (Q9H2G2 whole entry): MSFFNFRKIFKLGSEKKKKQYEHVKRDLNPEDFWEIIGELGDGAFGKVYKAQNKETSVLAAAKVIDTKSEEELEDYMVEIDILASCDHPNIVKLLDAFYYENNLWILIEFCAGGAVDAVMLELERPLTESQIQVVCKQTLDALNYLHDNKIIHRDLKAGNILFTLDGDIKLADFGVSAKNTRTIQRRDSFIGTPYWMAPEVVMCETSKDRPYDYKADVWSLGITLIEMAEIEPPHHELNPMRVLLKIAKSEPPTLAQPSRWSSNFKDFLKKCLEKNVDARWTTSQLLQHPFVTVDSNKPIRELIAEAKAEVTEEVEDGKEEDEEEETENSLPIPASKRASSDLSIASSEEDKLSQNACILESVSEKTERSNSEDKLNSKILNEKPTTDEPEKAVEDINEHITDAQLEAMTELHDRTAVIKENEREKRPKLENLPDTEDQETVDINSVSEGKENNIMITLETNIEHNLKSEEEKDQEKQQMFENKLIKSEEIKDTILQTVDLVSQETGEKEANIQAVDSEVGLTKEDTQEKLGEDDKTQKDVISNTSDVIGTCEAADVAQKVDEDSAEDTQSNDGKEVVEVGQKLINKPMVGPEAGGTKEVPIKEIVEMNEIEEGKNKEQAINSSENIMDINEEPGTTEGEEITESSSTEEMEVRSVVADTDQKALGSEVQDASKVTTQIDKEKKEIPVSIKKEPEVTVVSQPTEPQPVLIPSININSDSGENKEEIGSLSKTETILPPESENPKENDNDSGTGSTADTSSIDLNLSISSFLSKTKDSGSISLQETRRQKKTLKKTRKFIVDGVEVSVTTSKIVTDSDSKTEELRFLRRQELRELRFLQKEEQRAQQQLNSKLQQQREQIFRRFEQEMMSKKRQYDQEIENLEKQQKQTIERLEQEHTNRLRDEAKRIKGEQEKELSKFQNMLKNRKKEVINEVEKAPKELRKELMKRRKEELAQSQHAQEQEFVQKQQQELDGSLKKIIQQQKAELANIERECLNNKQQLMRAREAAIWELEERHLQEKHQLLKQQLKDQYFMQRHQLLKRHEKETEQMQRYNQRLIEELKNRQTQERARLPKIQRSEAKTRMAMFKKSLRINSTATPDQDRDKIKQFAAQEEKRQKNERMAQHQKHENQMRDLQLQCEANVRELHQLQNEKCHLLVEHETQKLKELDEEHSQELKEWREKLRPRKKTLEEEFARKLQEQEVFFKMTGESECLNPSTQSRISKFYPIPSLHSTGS
Chain of Fibroblast growth factor receptor 1 (P11362 whole entry): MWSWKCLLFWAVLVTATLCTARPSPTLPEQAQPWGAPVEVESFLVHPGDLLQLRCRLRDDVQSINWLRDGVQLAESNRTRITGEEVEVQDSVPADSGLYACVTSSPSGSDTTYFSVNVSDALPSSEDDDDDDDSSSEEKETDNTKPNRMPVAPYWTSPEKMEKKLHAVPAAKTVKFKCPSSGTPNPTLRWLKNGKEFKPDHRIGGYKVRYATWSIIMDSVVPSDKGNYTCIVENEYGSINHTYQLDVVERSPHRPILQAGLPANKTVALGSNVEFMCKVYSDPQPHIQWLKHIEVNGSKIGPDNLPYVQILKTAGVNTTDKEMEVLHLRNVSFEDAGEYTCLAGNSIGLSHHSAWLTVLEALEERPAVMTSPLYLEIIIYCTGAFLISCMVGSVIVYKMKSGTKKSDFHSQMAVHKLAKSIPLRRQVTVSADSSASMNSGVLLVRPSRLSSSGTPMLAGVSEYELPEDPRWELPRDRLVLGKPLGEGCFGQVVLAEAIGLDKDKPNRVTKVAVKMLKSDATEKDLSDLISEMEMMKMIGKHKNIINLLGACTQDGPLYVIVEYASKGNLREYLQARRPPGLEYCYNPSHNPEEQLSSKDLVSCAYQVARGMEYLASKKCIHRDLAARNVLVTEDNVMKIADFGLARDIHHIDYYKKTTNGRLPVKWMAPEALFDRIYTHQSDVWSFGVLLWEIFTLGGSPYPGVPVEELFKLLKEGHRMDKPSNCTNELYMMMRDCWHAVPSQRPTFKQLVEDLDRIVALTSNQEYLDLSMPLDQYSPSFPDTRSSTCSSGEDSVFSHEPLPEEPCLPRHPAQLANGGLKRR
Chain of Death-associated protein kinase 2 (Q9UIK4 whole entry): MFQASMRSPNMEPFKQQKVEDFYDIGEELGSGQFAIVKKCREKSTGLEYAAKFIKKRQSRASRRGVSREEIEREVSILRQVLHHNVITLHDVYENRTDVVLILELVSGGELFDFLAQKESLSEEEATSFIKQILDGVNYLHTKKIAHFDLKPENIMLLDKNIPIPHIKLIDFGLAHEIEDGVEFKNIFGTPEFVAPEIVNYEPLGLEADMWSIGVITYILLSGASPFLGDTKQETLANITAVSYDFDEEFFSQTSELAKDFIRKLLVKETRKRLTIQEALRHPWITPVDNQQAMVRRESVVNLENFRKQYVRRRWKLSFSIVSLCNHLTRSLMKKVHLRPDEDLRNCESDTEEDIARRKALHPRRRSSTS
Chain of Calcium/calmodulin-dependent protein kinase type II subunit beta (Q13554 whole entry): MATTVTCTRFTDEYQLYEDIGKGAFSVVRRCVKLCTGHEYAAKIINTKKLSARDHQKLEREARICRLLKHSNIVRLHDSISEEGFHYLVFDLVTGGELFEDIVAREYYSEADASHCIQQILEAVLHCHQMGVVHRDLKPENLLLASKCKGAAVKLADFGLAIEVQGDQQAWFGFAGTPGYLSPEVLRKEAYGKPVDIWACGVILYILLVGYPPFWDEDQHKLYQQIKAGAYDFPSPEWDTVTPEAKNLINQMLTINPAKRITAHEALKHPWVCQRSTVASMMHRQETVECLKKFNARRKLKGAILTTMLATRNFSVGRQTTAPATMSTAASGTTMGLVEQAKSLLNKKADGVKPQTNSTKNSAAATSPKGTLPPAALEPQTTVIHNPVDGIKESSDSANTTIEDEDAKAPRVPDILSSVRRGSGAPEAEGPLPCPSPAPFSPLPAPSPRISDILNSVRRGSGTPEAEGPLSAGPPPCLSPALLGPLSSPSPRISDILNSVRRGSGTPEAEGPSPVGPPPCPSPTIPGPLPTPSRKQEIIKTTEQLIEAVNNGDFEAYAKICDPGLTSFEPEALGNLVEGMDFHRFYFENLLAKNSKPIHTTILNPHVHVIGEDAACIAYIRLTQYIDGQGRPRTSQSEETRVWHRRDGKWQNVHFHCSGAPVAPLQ

Turning to `Oc1ccc(-c2nc(-c3ccc(F)cc3)c(-c3ccncc3)[nH]2)cc1` [SB-202190], the Kd result in assay [1], in assay [2], in assay [3], in assay [4], in [5] and in assay [6] was “Not Active” throughout. Besides, the Kd entry in [7], in [8], in [9], in assay [10], in assay [11] and in assay [12] was “Not Active” each time. Further, the dissociation constant (Kd) result in assay [13] is “Not Active”; in [14], “Not Active”; in assay [15], 400 nM.
